According to the supplement of paper PMC4862054:

Experiments:
Conditions in all cases: incubation time: 72 h
BT-549 = test: normalised response (% of control), CellTiter-Glo; higher = more viable cells (100 = DMSO, 0 = benzethonium chloride kill control)
Description: (§1)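 DSRT, 72 h incubation, CellTox Green / CellTiter-Glo readout. Signal is normalised to DMSO and benzethonium chloride controls. Value is the normalised response at the highest dose.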

MFM-223 = test: as above
Description: as §1

HCC1143 = test: as above
Description: as §1

MCF-10A = test: as above
Description: as §1

CAL-120 = test: as above
Description: as §1

Hs578T = test: as above
Description: as §1

SK-BR-3 = test: as above
Description: as §1

DU-4475 [1] = test: as above
Description: as §1

HCC1937 = test: as above
Description: as §1

BT-474 = test: as above
Description: as §1

MDA-MB-453 = test: normalised viability (% of control), CellTiter-Blue; higher = more viable cells (about 100 = DMSO control)
Description: (§2)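 DSRT, CellTiter-Blue viability, 72 h incubation. Signal is normalised to DMSO and benzethonium chloride controls. Value is the normalised response at dose 9.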

CAL-85-1 = test: as above
Description: as §2

CAL-51 = test: as above
Description: as §2

CAL-148 = test: as above
Description: as §2

DU-4475 [2] = test: as above
Description: as §2

HDQ-P1 = test: as above
Description: as §2

SMILES | normalised response (BT-549) | normalised response (MFM-223) | normalised response (HCC1143) | normalised response (MCF-10A) | normalised response (CAL-120) | normalised response (Hs578T) | normalised response (SK-BR-3) | normalised response (DU-4475 [1]) | normalised response (HCC1937) | normalised response (BT-474) | normalised viability (MDA-MB-453) | normalised viability (CAL-85-1) | normalised viability (CAL-51) | normalised viability (CAL-148) | normalised viability (DU-4475 [2]) | normalised viability (HDQ-P1)
Cn1cc(C2=Nc3cc(NC(=O)C(N)C4CCCCC4)cc4c3C2=CNNC4=O)cn1 (stereo not drawn) (10000 nM) | 12.1% | 50.4% | 14.7% | 38.6% | 42.8% | 26.6% | 8.5% | 48.4% | 21.2% | 38.3% | 16.3% | 48.9% | 30% | 28.1% | 41.9% | 35.2%
COc1cc2c(cc1O)CC[C@@H]1[C@@H]2CC[C@]2(C)[C@@H](O)CC[C@@H]12 [2-methoxyestradiol] (10000 nM) | 48.8% | 54.4% | 49.3% | 67.1% | 62.6% | 25.4% | 17.1% | 42.2% | 68.5% | 58.1% | 36.6% | 57.5% | 20.6% | 58.1% | 28.7% | 47.3%
Cc1sc2c(c1C)C(c1ccc(Cl)cc1)=N[C@@H](CC(=O)OC(C)(C)C)c1nnc(C)n1-2 [(+)JQ1] (10000 nM) | 35.7% | 45.1% | 58.3% | 46.5% | 78% | 41.3% | 53.2% | 20.4% | 68.2% | 66.1% | 18.3% | 44.4% | 68.3% | 27.6% | 1.08% | 108%
Oc1ncnc2[nH]ncc12 [Allopurinol] (10000 nM) | 102% | 103% | 104% | 105% | 99.1% | 102% | 114% | 99.7% | 102% | 97.9% | 108% | 109% | 92.5% | 118% | 115% | 99.2%
O=C1CN2Cc3c(ccc(Cl)c3Cl)N=C2N1 [Anagrelide] (10000 nM) | 97.3% | 99.6% | 93% | 105% | 96.5% | 80.5% | 102% | 98.9% | 97.9% | 88% | 90.9% | 89.8% | 83.8% | 115% | 108% | 118%
Nc1ncn([C@@H]2O[C@H](CO)[C@@H](O)[C@H]2O)c(=O)n1 [Azacitidine] (10000 nM) | 45% | 53.8% | 75% | 77% | 61.6% | 58.9% | 92.4% | 60.7% | 69.3% | 71.4% | 82% | 102% | 102% | 82.8% | 77.7% | 68.4%
O=NN(CCCl)C(=O)NCCCl [Carmustine] (10000 nM) | 110% | 94.4% | 106% | 93.8% | 96.2% | 101% | 95.2% | 96.5% | 99.6% | 91.5% | 115% | 95.6% | 98.2% | 109% | 105% | 114%
CC1=C2C[C@H]3[C@@H](CC=C4C[C@@H](O)CC[C@@]43C)[C@@H]2CC[C@]12O[C@@H]1C[C@H](C)CN[C@H]1[C@H]2C [Cyclopamine] (10000 nM) | 58% | 101% | 93.2% | 108% | 103% | 101% | 102% | 105% | 97.1% | 113% | 119% | 94.8% | 102% | 116% | 107% | 148%
